5 compounds from patent US6608086B2, “Dihydropyridines and new uses thereof” (Synaptic Pharmaceutical Corporation, priority 1993, dated 2003) can be followed below.

By melting point is commonly meant the temperature of the solid-liquid transition. Usually pKi stands for −log10 of the Ki, conventionally taken in molar units. Read a low pKi as a large Ki.

The structures appear in SMILES notation. Structures can show the parent of a compound that is named as a salt. Where two headings read alike, the source gives them in different places.

Data set [1] has as its target T1, α2B receptor (Homo sapiens, UniProt P18089).
T1 construct: host or cells: LM(tk-) cells, line L-NGC-α2B
T1 sequence (P18089 1-450): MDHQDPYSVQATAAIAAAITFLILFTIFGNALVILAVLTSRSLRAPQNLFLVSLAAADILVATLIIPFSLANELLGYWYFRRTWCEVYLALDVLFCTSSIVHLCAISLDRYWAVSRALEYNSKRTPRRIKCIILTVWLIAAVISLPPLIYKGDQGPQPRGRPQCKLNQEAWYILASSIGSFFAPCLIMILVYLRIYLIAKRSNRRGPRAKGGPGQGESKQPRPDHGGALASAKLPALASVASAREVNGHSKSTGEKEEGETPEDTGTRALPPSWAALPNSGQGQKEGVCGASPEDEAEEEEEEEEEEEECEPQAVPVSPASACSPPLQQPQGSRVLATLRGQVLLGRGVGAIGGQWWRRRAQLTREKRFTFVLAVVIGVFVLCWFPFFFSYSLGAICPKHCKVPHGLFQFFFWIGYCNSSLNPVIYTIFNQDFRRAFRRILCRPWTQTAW
Briefly: Competition binding, [3H]rauwolscine, human α2B receptor. Particulars: [3H]rauwolscine. An excerpt:
(§1) The protocols for these experiments are given below.
(§2) α2 Human Adrenergic Receptors:
(§3) To determine the potency of […], antagonists at the α2 receptors, LM(tk−) cell lines stably transfected with the genes encoding the α2A, α2B, and α2C receptors were used. The cell line expressing the α2A receptor is designated L-α2A, and was deposited on Nov. […] The cell line expressing the α2B receptor is designated L-NGC-α2B, and was deposited on Oct. […] The cell line expressing the α2C receptor is designated L-α2C, and was deposited on Nov. […] Cell lysates were prepared as described above (see Radioligand Binding Assays), and suspended in 25 mM glycylglycine buffer (pH 7.6 at room temperature). Equilibrium competition binding assay were performed using [3H]rauwolscine (0.5 nM), and nonspecific binding was determined by incubation with 10 μM phentolamine. The bound radioligand was separated by filtration through GF/B filters using a cell harvester.

The target of data set [2] is T2, L-type calcium channel (Rattus norvegicus, UniProt P22002).
T2 construct: membrane fragments of rat cardiac muscle; from tissue; host or cells: rat cardiac muscle membranes
T2 sequence (P22002 whole entry, other chains not shown, the tested form may be a part): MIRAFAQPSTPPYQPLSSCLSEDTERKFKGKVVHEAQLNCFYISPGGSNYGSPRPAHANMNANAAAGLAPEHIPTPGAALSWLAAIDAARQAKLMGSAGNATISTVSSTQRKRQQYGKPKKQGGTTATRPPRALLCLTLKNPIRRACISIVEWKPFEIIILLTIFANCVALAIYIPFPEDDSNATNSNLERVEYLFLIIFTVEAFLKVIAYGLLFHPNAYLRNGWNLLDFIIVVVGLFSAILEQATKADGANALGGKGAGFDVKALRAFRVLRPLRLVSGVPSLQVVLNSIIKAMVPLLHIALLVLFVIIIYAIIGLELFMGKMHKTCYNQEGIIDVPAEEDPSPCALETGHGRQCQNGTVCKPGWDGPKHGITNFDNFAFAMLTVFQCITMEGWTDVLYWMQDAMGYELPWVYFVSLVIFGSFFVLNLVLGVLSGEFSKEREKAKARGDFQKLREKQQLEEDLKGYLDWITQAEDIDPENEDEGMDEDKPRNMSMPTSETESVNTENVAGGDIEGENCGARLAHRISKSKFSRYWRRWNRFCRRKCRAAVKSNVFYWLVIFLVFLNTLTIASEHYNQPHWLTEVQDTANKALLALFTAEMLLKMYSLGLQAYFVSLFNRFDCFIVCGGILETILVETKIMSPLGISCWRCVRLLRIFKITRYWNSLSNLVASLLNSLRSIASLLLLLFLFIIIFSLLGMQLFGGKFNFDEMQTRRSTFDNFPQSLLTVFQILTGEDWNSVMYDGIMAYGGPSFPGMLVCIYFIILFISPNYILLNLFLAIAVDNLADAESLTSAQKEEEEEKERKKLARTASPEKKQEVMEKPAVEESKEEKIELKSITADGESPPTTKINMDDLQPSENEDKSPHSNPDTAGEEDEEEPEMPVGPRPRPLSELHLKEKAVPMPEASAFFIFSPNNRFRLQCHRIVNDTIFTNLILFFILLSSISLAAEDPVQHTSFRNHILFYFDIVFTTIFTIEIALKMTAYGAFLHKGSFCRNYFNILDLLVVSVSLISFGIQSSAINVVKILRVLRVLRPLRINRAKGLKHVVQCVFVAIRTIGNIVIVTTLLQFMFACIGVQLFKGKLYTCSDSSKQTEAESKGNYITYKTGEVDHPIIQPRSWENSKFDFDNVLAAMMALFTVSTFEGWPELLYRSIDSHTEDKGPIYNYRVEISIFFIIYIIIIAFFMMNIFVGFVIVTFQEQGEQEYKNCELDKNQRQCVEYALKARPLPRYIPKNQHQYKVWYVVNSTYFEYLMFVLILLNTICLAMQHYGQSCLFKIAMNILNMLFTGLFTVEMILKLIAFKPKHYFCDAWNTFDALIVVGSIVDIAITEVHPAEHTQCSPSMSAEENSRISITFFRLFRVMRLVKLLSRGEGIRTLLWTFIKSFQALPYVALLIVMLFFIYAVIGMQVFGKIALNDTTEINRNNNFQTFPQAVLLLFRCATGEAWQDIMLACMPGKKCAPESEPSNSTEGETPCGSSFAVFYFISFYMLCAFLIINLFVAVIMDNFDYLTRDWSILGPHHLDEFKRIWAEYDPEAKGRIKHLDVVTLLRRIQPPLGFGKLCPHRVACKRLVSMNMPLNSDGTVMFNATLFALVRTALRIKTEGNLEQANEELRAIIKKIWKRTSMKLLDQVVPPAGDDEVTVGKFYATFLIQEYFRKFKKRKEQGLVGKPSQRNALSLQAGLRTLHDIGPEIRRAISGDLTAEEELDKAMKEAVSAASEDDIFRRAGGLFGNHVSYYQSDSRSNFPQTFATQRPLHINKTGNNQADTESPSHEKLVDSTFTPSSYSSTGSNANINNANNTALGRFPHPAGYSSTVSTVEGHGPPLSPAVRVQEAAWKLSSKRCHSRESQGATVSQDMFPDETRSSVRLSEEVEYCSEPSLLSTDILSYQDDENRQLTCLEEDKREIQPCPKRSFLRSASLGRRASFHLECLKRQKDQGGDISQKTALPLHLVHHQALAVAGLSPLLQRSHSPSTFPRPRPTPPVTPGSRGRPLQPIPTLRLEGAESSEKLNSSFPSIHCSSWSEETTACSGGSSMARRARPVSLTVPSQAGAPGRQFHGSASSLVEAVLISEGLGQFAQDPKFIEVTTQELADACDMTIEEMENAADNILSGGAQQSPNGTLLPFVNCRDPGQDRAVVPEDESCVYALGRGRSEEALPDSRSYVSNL
T2 sequence (P54290 25-944 partner limits assumed, other chains not shown): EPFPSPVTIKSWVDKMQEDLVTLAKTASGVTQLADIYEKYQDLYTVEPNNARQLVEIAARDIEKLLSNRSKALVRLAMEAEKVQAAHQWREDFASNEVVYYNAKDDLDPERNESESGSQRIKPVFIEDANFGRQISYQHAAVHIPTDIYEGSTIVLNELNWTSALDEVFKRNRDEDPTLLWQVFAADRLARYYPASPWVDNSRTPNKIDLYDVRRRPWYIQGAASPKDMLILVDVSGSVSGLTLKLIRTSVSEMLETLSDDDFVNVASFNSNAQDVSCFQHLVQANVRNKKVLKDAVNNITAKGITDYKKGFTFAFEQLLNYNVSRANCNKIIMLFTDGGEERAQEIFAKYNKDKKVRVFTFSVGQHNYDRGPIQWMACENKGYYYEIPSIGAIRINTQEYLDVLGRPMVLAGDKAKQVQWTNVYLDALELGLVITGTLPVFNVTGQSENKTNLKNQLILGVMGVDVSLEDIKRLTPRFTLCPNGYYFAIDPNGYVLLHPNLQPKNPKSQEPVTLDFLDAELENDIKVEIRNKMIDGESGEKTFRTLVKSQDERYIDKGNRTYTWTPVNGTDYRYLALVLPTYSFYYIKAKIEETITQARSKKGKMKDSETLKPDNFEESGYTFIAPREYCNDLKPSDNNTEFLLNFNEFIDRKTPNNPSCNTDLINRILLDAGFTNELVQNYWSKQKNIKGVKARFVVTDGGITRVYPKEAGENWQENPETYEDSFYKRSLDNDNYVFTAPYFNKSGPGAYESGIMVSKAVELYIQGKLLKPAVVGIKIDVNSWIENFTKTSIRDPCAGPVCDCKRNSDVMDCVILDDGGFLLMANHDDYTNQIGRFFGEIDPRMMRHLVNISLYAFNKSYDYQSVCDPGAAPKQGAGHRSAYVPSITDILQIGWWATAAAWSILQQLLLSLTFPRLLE
T2 sequence (P54290 945-1091 partner limits assumed, other chains not shown): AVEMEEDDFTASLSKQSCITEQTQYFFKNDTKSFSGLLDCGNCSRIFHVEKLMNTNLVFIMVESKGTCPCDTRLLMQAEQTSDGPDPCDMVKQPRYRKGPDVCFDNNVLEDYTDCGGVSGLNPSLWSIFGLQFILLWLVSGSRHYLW
Briefly: Competition binding of [3H]nitrendipine to membrane fragments of rat cardiac muscle. The following applies: [3H]nitrendipine, rat cardiac muscle membranes.

Data set [3] has as its target T3, α2A receptor (Homo sapiens, UniProt P08913).
T3 construct: host or cells: LM(tk-) cells, line L-α2A
T3 sequence (P08913 1-465): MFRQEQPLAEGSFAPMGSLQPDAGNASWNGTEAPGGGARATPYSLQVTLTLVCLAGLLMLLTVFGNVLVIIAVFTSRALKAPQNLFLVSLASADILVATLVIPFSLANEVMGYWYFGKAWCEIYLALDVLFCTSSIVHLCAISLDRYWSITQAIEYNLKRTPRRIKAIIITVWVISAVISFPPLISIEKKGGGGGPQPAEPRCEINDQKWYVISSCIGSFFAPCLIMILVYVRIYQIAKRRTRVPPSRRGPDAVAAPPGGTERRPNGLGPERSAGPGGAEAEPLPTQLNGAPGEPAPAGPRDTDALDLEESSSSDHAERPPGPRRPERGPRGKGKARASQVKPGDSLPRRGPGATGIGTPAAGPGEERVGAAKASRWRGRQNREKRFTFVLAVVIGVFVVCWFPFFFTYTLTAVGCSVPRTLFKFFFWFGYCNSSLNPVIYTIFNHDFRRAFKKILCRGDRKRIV
Briefly: Competition binding, [3H]rauwolscine, human α2A receptor. Particulars: [3H]rauwolscine.
Excerpt: as §1, §2, §3

Data set [4] has as its target T4, α2C receptor (Homo sapiens, UniProt P18825).
T4 construct: host or cells: LM(tk-) cells, line L-α2C
T4 sequence (P18825 1-462): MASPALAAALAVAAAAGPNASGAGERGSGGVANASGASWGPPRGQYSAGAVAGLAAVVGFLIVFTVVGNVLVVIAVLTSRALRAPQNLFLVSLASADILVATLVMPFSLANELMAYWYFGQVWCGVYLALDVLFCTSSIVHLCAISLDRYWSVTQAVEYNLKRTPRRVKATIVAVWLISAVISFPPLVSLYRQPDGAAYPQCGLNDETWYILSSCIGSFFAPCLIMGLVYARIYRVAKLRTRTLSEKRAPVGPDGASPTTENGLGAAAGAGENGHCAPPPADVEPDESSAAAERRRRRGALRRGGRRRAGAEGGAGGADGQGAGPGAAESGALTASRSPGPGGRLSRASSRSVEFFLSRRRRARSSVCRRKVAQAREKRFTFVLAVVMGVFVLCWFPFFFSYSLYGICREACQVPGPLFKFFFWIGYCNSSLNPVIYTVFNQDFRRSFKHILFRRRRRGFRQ
Put plainly: Competition binding, [3H]rauwolscine, human α2C receptor. The following applies: [3H]rauwolscine.
Excerpt: as §1, §2, §3

In data set [5] the test system is canine prostate. Briefly: In vivo dog prostate model: inhibition of phenylephrine-induced increase in urethral pressure in anesthetized dogs. Particulars: In Vivo Dog Prostate Model; phenylephrine-induced contraction, urethral pressure.
Experimental: Protocol for In Vivo Evaluation of Compounds in Canine Prostate
Adult male mongrel dogs more than one year of age were chosen for the model. After induction of general anesthesia using sodium pentobarbital (25 mg/Kg i.v.), the animals were intubated and allowed to breathe spontaneously. An arterial catheter was inserted via the femoral artery to monitor blood pressure and i.v. line was inserted into the leg for fluid and drug administration. A constant saline infusion was maintained at 40 to 50 mL/h. Next, a seven cm lower abdominal incision was made one cm lateral to the penis.
The bladder, prostate and a short segment of urethra were identified and isolated, without damage to the nerves or blood vessels. A cystotomy incision was made through which the pressure catheter was inserted and positioned in the prostatic urethra. The cystotomy was not closed, but the wound edges were sutured to stop bleeding. The tip of the catheter was positioned just distal to the prostate and secured in place with an O-silk tie around the urethra. A second holding suture at the bladder neck secured the catheter in place.
Fluid, either water or saline, was pumped by a Harvard infusion pump at 0.1 mL/min through a Gould pressure transducer into the catheter. The fluid exists at a port in the catheter which is in the prostatic urethra. Occlusion of the port, by contraction of the prostate, blocks the flow and a pressure wave is created. This pressure is transmitted back through the catheter to the transducer which is attached to a Gould recorder. Squeezing the prostate gland caused an increase in urethral pressure which verified the correct position in the urethra.
The compounds were tested as follows: A dose response curve was first generated for phenylephrine alone, in doses ranging from one μg/Kg to 50 μg/Kg. The absolute rise in urethral pressure was recorded for each dose and the next dose given when the urethral pressure returned to baseline. Phenylephrine dose response curves were generated in all animals tested. Increasing doses of compounds were then given, and the phenylephrine dose response curve repeated in the prepense of each dose of the compound. No animal received more than one compound; four animals were used to test each compound. To test for tachyphylaxis, four separate dogs were challenged with repeated phenylephrine doses for six hrs, the usual length of each experiment. From the dose-effect data, the inhibition constant (Ki) and the median-effect dose (ED50) were calculated. Both the Ki and ED50 values given are calculated by using microcomputer software and an IBM-PC.
For data set [6], the target named is human prostatic tissue. Briefly: In vitro human prostate model: block of phenylephrine-induced contraction of human prostatic tissue. The class given is cell-based. Particulars: In Vitro Human Prostate Model; phenylephrine-induced contraction. An excerpt: The protocol for these experiments is given below.
Functional Properties of α1 Antagonists in the Human Prostate
The efficacy of α1 adrenergic antagonists for the treatment of benign prostatic hyperplasia (BPH) is related to their ability to elicit relaxation of prostate smooth muscle. An index of this efficacy can be obtained by determining the potency of al antagonists to antagonize the contraction of human prostatic tissue induced by an α1 agonist “in vitro”. Furthermore, by comparing the potency of subtype selective α1 antagonists in binding assays using human α1 receptors with their potency to inhibit agonist-induced smooth muscle contraction, it is possible to determine which of the α1 adrenergic receptor subtypes is involved in the contraction of prostate smooth muscle.
Prostatic adenomas were obtained at the time of surgery from patients with symptomatic BPH. […] The baths were maintained at 37° C. and continuously oxygenated with 5% CO2 and 95% O2. Isometric tension was measured with a Grass Instrument FT03 force transducer interfaced with a computer. Tissue strips were contracted with varying concentrations of phenylephrine after incubating for 20 minutes in the absence and presence of at least three different concentrations of antagonist. Dose-response curves for phenylephrine were constructed, and the antagonist potency (pA2) was estimated by the dose-ratio method. The concentration of some antagonists in the tissue bath was assessed by measuring the displacement of [3H]prazosin by aliquots of the bath medium, using membrane preparations of the cloned human α1C receptor. This control was necessary to account for losses of antagonist due to adsorption to the tissue bath and/or metabolism during the time the antagonists were equilibrated with the prostate tissue.

Setting [7] is: human receptor, LM(tk-) cell lysates, mean, read-out: PKi alpha-2 2b (converted).
The mark [8] stands for this setting: mean, read-out: PKi Ca (converted).
[9] abbreviates: human receptor, LM(tk-) cell lysates, mean, read-out: PKi alpha-2 2a (converted).
Setting [10] is: human receptor, LM(tk-) cell lysates, mean, read-out: PKi alpha-2 2c (converted).

With `CNC(=O)C1=C(C)NC(C)=C(C(=O)NCCCN2CCC(c3ccccc3)CC2)C1c1ccc([N+](=O)[O-])cc1` (centres unmarked) [Example 56, 1,4-Dihydro-2,6-dimethyl-5-(N-methyl) carboxamido-4-(4-nitrophenyl)-3-{N-[3-(4-phenylpiperidin-1-yl)propyl]}carboxamidopyridine hydrochloride hemihydrate], the Ki in data set [1] (LM(tk-) cell line L-NGC-α2B, SEM and n in lines below, read-out: pKi alpha-2 2b (converted)) was 129 nM; in data set [2] (SEM and n in lines below, read-out: pKi Ca (converted)), 6460 nM; in data set [3] (LM(tk-) cell line L-α2A, SEM and n in lines below, read-out: pKi alpha-2 2a (converted)) it was 269 nM; in data set [4] (LM(tk-) cell line L-α2C, SEM and n in lines below, read-out: pKi alpha-2 2c (converted)), 186 nM.

As to `COC(=O)C1(c2ccccc2)CCN(CCCNC(=O)C2=C(C)NC(C)=C(C(N)=O)C2c2ccc([N+](=O)[O-])cc2)CC1` (centres unmarked) [Example 198, 5-Carboxamido-1,4-dihydro-2,6-dimethyl-3-{N-[3-(4-methoxycarbonyl-4-phenylpiperidin-1-yl)propyl]}carboxamido-4-(4-nitrophenyl)pyridine], the melting point lay within 120 to 121 °C. The Ki in data set [1] (setting [7]) was 1070 nM. The Ki in data set [2] (setting [8]) is 178000 nM. In data set [3] (setting [9]), the Ki was 1120 nM. In data set [4] (setting [10]), the Ki is 2450 nM.

In data set [5], `COC(=O)C1=C(C)NC(C)=C(C(=O)NCCCN2CCC(c3ccccc3)(c3ccccc3)CC2)C1c1ccc([N+](=O)[O-])cc1` (racemic) [(±)-93, hydrochloride hydrate] gave a Ki of 7.6 nmol/kg. In data set [6], the pKi stood at 7.28 ± 0.4.

In turn, `CCOC(=O)C1(c2ccccc2)CCN(CCCNC(=O)C2=C(C)NC(C)=C(C(C)=O)C2c2ccc([N+](=O)[O-])cc2)CC1` (racemic) [Example 202, 5-Acetyl-1,4-dihydro-2,6-dimethyl-3-{N-[3-(4-ethoxycarbonyl-4-phenylpiperidin-1-yl)propyl]}carboxamido-4-(4-nitrophenyl)pyridine] returned a melting point of 89 to 90 °C. For the same compound, in data set [1] (setting [7]), the Ki was 912 nM. For the same compound, the Ki in data set [2] (setting [8]) is 263000 nM. Moreover, the Ki in data set [3] (setting [9]) is 4470 nM. The Ki in data set [4] (setting [10]) is 2140 nM.

`COC(=O)C1(c2ccccc2)CCN(CCCNC(=O)C2=C(C)NC(C)=C(C(C)=O)C2c2ccc([N+](=O)[O-])cc2)CC1` (centres unmarked) [Example 201, 5-Acetyl-1,4-dihydro-2,6-dimethyl-3-{N-[3-(4-methoxycarbonyl-4-phenylpiperidin-1-yl)propyl]}carboxamido-4-(4-nitrophenyl)pyridine] had a melting point of 94 to 95 °C. In addition, the Ki in data set [2] (setting [8]) is 67600 nM. Besides, the Ki in data set [3] (setting [9]) was 4470 nM. In addition, the Ki in data set [4] (setting [10]) is 3240 nM.
